SMILES strings stand for the structures.

The target in the test is T1, GHS-R (Homo sapiens, UniProt Q92847).
T1 construct: expressed in transfected cells; host or cells: COS-7 cells
T1 sequence (Q92847 whole entry, species assumed): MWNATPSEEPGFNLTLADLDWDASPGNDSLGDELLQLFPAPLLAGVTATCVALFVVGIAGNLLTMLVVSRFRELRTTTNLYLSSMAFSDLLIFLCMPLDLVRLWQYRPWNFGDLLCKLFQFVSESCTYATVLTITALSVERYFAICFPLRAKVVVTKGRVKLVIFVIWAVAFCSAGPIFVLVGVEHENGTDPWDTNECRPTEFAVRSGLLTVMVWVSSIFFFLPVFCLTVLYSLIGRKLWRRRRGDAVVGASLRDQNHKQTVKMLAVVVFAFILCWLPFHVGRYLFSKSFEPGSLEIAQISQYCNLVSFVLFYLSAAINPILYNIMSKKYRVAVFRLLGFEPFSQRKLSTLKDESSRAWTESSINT
Kind of test: GHS-R competition binding assay (Ki of GHS-R antagonizing compounds). The protocol:
One exemplary binding assay is as follows: GHS-R expressing COS-7 cells cultured at a density of 1×10^5 cells per well so that binding is assayed in the range of about 5-8 % binding of the radioactive ligand. For example, the cells can express an endogenous nucleic acid encoding GHS-R or an exogenous nucleic acid encoding GHS-R. Cells transfected with an exogenous nucleic acid encoding GHS-R can be used, e.g., two days, after transfection. Competition binding experiments are performed for 3 hours at 4° C. using 25 pM of ^125I-ghrelin in 0.5 ml of 50 mM HEPES buffer, pH 7.4, supplemented with 1 mM CaCl2, 5 mM MgCl2, and 0.1% (w/v) bovine serum albumin, 40 mg/ml bacitracin. Non-specific binding can be determined as the binding in the presence of […] of unlabeled ghrelin. Cells are washed twice in 0.5 ml of ice-cold buffer and then lysed with 0.5-1 ml of lysis buffer (8 M Urea, 2% NP40 in 3 M acetic acid). After washing and lysis, the bound radioactivity is counted. Assays can be run in duplicate or triplicate, e.g., to provide statistical power.
Values of the dissociation and inhibition constants (Kd and Ki) can be estimated from competition binding experiments using the equation: Kd=IC50-L and Ki=IC50/(1+L/Kd), where L is the concentration of radioactive ligand. Bmax values can be estimated from competition binding experiments using the equation Bmax=B0 IC50/[ligand], where B0 is the specifically bound radioligand.
One may read the Ki as a dissociation constant, usually derived from enzyme kinetics or from competition with a known ligand. Turning to `CCN(CC)CCCS(=O)(=O)N[C@H](CCc1ccccc1)C(=O)c1ccc(-c2ccccc2C(N)=O)cc1` [Compound 174, (R)-4′-(2-(3-(diethylamino)propylsulfonamido)-4-phenylbutanoyl)biphenyl-2-carboxamide], the Ki lay in the range of 100 to 1000 nM. For `CCNC(=O)Nc1ccccc1-c1ccc(C(=O)[C@@H](COCc2ccccc2)NS(=O)(=O)CCCN(CC)CC)cc1` [Compound 175, (R)-N-(3-(benzyloxy)-1-(2′-(3-ethylureido)biphenyl-4-yl)-1-oxopropan-2-yl)-3-(diethylamino)propane-1-sulfonamide] the value was 100 to 1000 nM.

For `CCN(CC)CCCS(=O)(=O)N[C@H](COCc1ccccc1)C(=O)c1ccc(-c2ccccc2NC(=O)NC)cc1` [Compound 176, (R)-N-(3-(benzyloxy)-1-(2′-(3-methylureido)biphenyl-4-yl)-1-oxopropan-2-yl)-3-(diethylamino)propane-1-sulfonamide], the inhibitory constant (Ki) was in the range of 100 to 1000 nM. Compound `CCN(CC)CCCS(=O)(=O)N[C@H](COCc1ccccc1)C(=O)c1ccc(-c2ccccc2C(N)=O)cc1` [Compound 177, (R)-4′-[3-Benzyloxy-2-(3-diethylamino-propane-1-sulfonylamino)-propionyl]-biphenyl-2-carboxylic acid amide] gave a Ki of 100 to 1000 nM. As for `CCN(CC)CCCS(=O)(=O)N[C@H](COCc1ccccc1)C(=O)c1ccc(-c2ccccc2C#N)cc1` [Compound 178, (R)-N-(3-(benzyloxy)-1-(2′-cyanobiphenyl-4-yl)-1-oxopropan-2-yl)-3-(diethylamino)propane-1-sulfonamide], the figure is 100 to 1000 nM; as for `CCN(CC)CCCS(=O)(=O)N[C@H](CCc1ccccc1)C(=O)NCc1ccc(-c2ccccc2C(=O)NC)cc1` [Compound 179, (R)-4′-{[2-(3-Diethylamino-propane-1-sulfonylamino)-4-phenyl-butyrylamino]-methyl}-biphenyl-2-carboxylic acid methylamide], 100 to 1000 nM; as for `CCN(CC)CCCS(=O)(=O)N[C@H](CCc1ccccc1)C(=O)NCc1ccc(-c2ccccc2CN)cc1` [Compound 180, (R)-N-((2′-(aminomethyl)biphenyl-4-yl)methyl)-2-(3-(diethylamino)propylsulfonamido)-4-phenylbutanamide], 100 to 1000 nM. As for `CCN(CC)CCCS(=O)(=O)N[C@H](CCc1ccccc1)C(=O)NCc1ccc(-c2ccccc2CC(=O)NC)cc1` [Compound 181, (R)-2-(3-(diethylamino)propylsulfonamido)-N-((2′-(2-(methylamino)-2-oxoethyl)biphenyl-4-yl)methyl)-4-phenylbutanamide], the figure is 100 to 1000 nM; as for `CCN(CC)CCCS(=O)(=O)N[C@H](CCc1ccccc1)C(=O)NCc1ccc(-c2ccccc2CNC(=O)OC(C)(C)C)cc1` [Compound 182, (R)-(4′-{[2-(3-Diethylamino-propane-1-sulfonylamino)-4-phenyl-butyrylamino]-methyl}-biphenyl-2-ylmethyl)-carbamic acid tert-butyl ester], 100 to 1000 nM. As for `CCN(CC)CCCS(=O)(=O)N[C@H](CCc1ccccc1)C(=O)c1ccc(-c2ccccc2C(=O)O)cc1` [Compound 183, (R)-4′-(2-(3-(diethylamino)propylsulfonamido)-4-phenylbutanoyl)biphenyl-2-carboxylic acid], the figure is 100 to 1000 nM; as for `CCOC(=O)c1ccccc1-c1ccc(C(=O)[C@@H](CCc2ccccc2)NS(=O)(=O)CCCN(CC)CC)cc1` [Compound 184, (R)-ethyl 4′-(2-(3-(diethylamino)propylsulfonamido)-4-phenylbutanoyl)biphenyl-2-carboxylate], greater than 1000 nM. Compound `CCN(CC)CCCS(=O)(=O)N[C@H](CCc1ccccc1)C(=O)c1ccc(-c2ccccc2CCNC(=O)NC)cc1` [Compound 185, (R)-3-(diethylamino)-N-(1-(2′-(2-(3-methylureido)ethyl)biphenyl-4-yl)-1-oxo-4-phenylbutan-2-yl)propane-1-sulfonamide] had a Ki of less than 100 nM.
